Calls of active or inactive are those of the source. The calls are words filed in the database; no cut-off is given here.
Tests used:
[1] = system: Rattus norvegicus; experiment: Antihypertensive activity against MCT-induced Wistar albino rat PAH model assessed as decreased right ventricular hypertrophy at 300 mg/kg, sc administered for 21 days (reference value: 0.42 +/- 0.020 […]); type: functional; conditions: time 21 day
[2] = system: Rattus norvegicus; experiment: Antihypertensive activity against MCT-induced Wistar albino rat PAH model assessed as decreased right ventricular hypertrophy at 150 mg/kg, sc administered for 21 days (reference value: 0.42 +/- 0.020 […]); type: functional; conditions: time 21 day
[3] = system: Rattus norvegicus; experiment: Antihypertensive activity against MCT-induced Wistar albino rat PAH model assessed as decreased mean pulmonary arterial pressure at 300 mg/kg, sc administered for 21 days (reference value: 19.18 +/- 0.360 mmHg); type: functional; conditions: time 21 day
[4] = system: Rattus norvegicus; experiment: Antihypertensive activity against MCT-induced Wistar albino rat PAH model assessed as decreased mean pulmonary arterial pressure at 150 mg/kg, sc administered for 21 days (reference value: 19.18 +/- 0.360 mmHg); type: functional; conditions: time 21 day
[5] = system: Rattus norvegicus; experiment: Antihypertensive activity against MCT-induced Wistar albino rat PAH model assessed as decreased right ventricular systolic pressure at 300 mg/kg, sc administered for 21 days (reference value: 55.19 +/- 0.026 mmHg); type: functional; conditions: time 21 day
[6] = system: Rattus norvegicus; experiment: Antihypertensive activity against MCT-induced Wistar albino rat PAH model assessed as decreased right ventricular systolic pressure at 150 mg/kg, sc administered for 21 days (reference value: 55.19 +/- 0.026 mmHg); type: functional; conditions: time 21 day
[7] = target: T1, Endothelin-1 receptor (Homo sapiens, UniProt P25101); experiment: Antagonist activity against human ET-1 by ELISA analysis; type: functional
T1 sequence (P25101 whole entry): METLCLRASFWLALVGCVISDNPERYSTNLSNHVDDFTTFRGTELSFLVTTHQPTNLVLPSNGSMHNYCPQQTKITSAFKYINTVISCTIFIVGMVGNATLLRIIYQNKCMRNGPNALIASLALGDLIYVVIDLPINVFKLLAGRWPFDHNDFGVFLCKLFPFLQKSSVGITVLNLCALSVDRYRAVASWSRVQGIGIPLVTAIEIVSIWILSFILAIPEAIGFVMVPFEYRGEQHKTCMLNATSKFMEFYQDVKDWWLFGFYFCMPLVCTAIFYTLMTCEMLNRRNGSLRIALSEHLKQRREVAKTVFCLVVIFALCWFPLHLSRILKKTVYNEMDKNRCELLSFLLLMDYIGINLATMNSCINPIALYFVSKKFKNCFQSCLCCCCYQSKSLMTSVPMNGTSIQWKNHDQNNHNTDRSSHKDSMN

[8] = system: Rattus norvegicus; experiment: Antihypertensive activity against MCT-induced Wistar albino rat assessed as reduction of arterial wall thickening in peribronchial arteries at 150 to 300 mg/kg, sc by hematoxylin and eosin staining based microscopic analysis; type: functional, organism-based; conditions: dose 150-300 mg/kg
[9] = system: Rattus norvegicus; experiment: Antihypertensive activity against MCT-induced Wistar albino rat assessed as reduction in HIF1alpha level at 150 mg/kg, sc by ELISA analysis (reference value: 312.00 +/- 1.36 ng/ml); type: functional
[10] = system: Rattus norvegicus; experiment: Antihypertensive activity against MCT-induced Wistar albino rat assessed as reduction in HIF1alpha level at 300 mg/kg, sc by ELISA analysis (reference value: 312.00 +/- 1.36 ng/ml); type: functional
[11] = system: Rattus norvegicus; experiment: Antihypertensive activity against MCT-induced Wistar albino rat assessed as reduction in ANP level at 150 mg/kg, sc by ELISA analysis (reference value: 358.00 +/- 1.24 pg/ml); type: functional
[12] = system: Rattus norvegicus; experiment: Antihypertensive activity against MCT-induced Wistar albino rat assessed as reduction in ANP level at 300 mg/kg, sc by ELISA analysis (reference value: 358.00 +/- 1.24 pg/ml); type: functional
[13] = system: Rattus norvegicus; experiment: Antihypertensive activity against MCT-induced Wistar albino rat assessed as reduction in TNNI3 level at 150 mg/kg, sc by ELISA analysis (reference value: 3.42 +/- 0.12 pg/ml); type: functional
[14] = system: Rattus norvegicus; experiment: Antihypertensive activity against MCT-induced Wistar albino rat assessed as reduction in TNNI3 level at 300 mg/kg, sc by ELISA analysis (reference value: 3.42 +/- 0.12 pg/ml); type: functional
[15] = system: Rattus norvegicus; experiment: Antioxidant activity against MCT-induced Wistar albino rat assessed as increase in SOD level at 150 mg/kg, sc by biochemical analysis (reference value: 19.15 +/- 0.21 U/mg); type: functional
[16] = system: Rattus norvegicus; experiment: Antioxidant activity against MCT-induced Wistar albino rat assessed as increase in SOD level at 300 mg/kg, sc by biochemical analysis (reference value: 19.15 +/- 0.21 U/mg); type: functional
[17] = system: Rattus norvegicus; experiment: Antioxidant activity against MCT-induced Wistar albino rat assessed as increase in catalase level at 150 mg/kg, sc by biochemical analysis (reference value: 0.26 +/- 0.05 U/mg); type: functional
[18] = system: Rattus norvegicus; experiment: Antioxidant activity against MCT-induced Wistar albino rat assessed as increase in catalase level at 300 mg/kg, sc by biochemical analysis (reference value: 0.26 +/- 0.05 U/mg); type: functional
[19] = system: Rattus norvegicus; experiment: Antioxidant activity against MCT-induced Wistar albino rat assessed as increase in GSH level at 150 mg/kg, sc by biochemical analysis (reference value: 12.21 +/- 0.34 U/mg); type: functional
[20] = system: Rattus norvegicus; experiment: Antioxidant activity against MCT-induced Wistar albino rat assessed as increase in GSH level at 300 mg/kg, sc by biochemical analysis (reference value: 12.21 +/- 0.34 U/mg); type: functional
[21] = system: Rattus norvegicus; experiment: Antioxidant activity against MCT-induced Wistar albino rat assessed as reduction in TBARS level at 150 mg/kg, sc by biochemical analysis (reference value: 123.03 +/- 0.47 micromol); type: functional
[22] = system: Rattus norvegicus; experiment: Antioxidant activity against MCT-induced Wistar albino rat assessed as reduction in TBARS level at 300 mg/kg, sc by biochemical analysis (reference value: 123.03 +/- 0.47 micromol); type: functional
[23] = system: Rattus norvegicus; experiment: Antihypertensive activity against MCT-induced Wistar albino rat assessed as decrease in COX-2 expression by measuring fold change at 300 mg/kg, sc by quantitative RT-PCR analysis (reference value: 32.22); type: functional
[24] = system: Rattus norvegicus; experiment: Antihypertensive activity against MCT-induced Wistar albino rat assessed as decrease in ET-alpha expression by measuring fold change at 300 mg/kg, sc by quantitative RT-PCR analysis (reference value: 32.14); type: functional
[25] = system: Rattus norvegicus; experiment: Antihypertensive activity against MCT-induced Wistar albino rat assessed as decrease in ET-beta expression by measuring fold change at 300 mg/kg, sc by quantitative RT-PCR analysis (reference value: 15.17); type: functional
[26] = system: Rattus norvegicus; experiment: Antihypertensive activity against MCT-induced Wistar albino rat assessed as decrease in mPGES-1 expression by measuring fold change at 300 mg/kg, sc by quantitative RT-PCR analysis (reference value: 10.99); type: functional
[27] = system: Rattus norvegicus; experiment: Antihypertensive activity against MCT-induced Wistar albino rat assessed as increase in eNOS expression by measuring fold change at 300 mg/kg, sc by quantitative RT-PCR analysis (reference value: 0.002); type: functional
[28] = system: Rattus norvegicus; experiment: Antihypertensive activity against MCT-induced Wistar albino rat assessed as increase in SGC expression by measuring fold change at 300 mg/kg, sc by quantitative RT-PCR analysis (reference value: 0.01); type: functional
[29] = system: Rattus norvegicus; experiment: Antihypertensive activity against MCT-induced Wistar albino rat assessed as decrease in lung COX-2 expression at 300 mg/kg, sc by Western blotting analysis; type: functional, organism-based
[30] = system: Rattus norvegicus; experiment: Antihypertensive activity against MCT-induced Wistar albino rat assessed as decrease in lung mPGES-1 expression at 300 mg/kg, sc by Western blotting analysis; type: functional, organism-based
[31] = system: Rattus norvegicus; experiment: Antihypertensive activity against MCT-induced Wistar albino rat assessed as increase in lung SGC expression at 300 mg/kg, sc by Western blotting analysis; type: functional, organism-based
[32] = system: Rattus norvegicus; experiment: Antihypertensive activity against MCT-induced Wistar albino rat assessed as increase in lung eNOS expression at 300 mg/kg, sc by Western blotting analysis; type: functional, organism-based
[33] = system: Rattus norvegicus; experiment: Antihypertensive activity against MCT-induced Wistar albino rat assessed as presence of lung vasculitis at 150 to 300 mg/kg, sc by hematoxylin and eosin staining based microscopic analysis; type: functional, organism-based; conditions: dose 150-300 mg/kg
[34] = system: Rattus norvegicus; experiment: Antihypertensive activity against MCT-induced Wistar albino rat PAH model assessed as reduction in peribronchial and interstitial inflammatory infiltrates and inter-alveolar vascular spaces at 150 to 300 mg/kg, sc by hematoxylin and eosin staining based microscopic analysis; type: functional, organism-based; conditions: dose 150-300 mg/kg

Row | SMILES | Activity [1] | Activity [2] | Activity [3] | Activity [4] | Activity [5] | Activity [6] | IC50 [7] | Activity [9] | Activity [10] | Activity [11] | Activity [12] | Activity [13] | Activity [14] | Activity [15] | Activity [16] | Activity [17] | Activity [18] | Activity [19] | Activity [20] | Activity [21] | further results
1 | COc1ccccc1Oc1c(NS(C)(=O)=O)nc(-c2ncccn2)nc1OCCC(C)C | 0.23 | 0.26 | 9.02 mmHg | 11.18 mmHg | 21.11 mmHg | 26.82 mmHg | 0.18 nM | 139 ng/mL | 121 ng/mL | 241.2 pg/mL | 224 pg/mL | 1.94 pg/mL | 1.84 pg/mL | 38.21 U/mg | 46.01 U/mg | 1.09 U/mg | 1.21 U/mg | 21.92 U/mg | 28.09 U/mg | 78.12 µmol | Activity [8]: Active; Activity [22]: 69.82 µmol; fold change (FC) [23]: 1.81; fold change (FC) [24]: 0.44; fold change (FC) [25]: 0.34; fold change (FC) [26]: 0.81; fold change (FC) [27]: 0.63; fold change (FC) [28]: 0.49; Activity [29]: Active; Activity [30]: Active; Activity [31]: Active; Activity [32]: Active
2 | CC/C=C/CCOc1nc(-c2ncccn2)nc(NS(C)(=O)=O)c1Oc1ccccc1OC | 0.25 | 0.29 | 13.93 mmHg | 17.16 mmHg | 27.12 mmHg | 33.18 mmHg | 0.26 nM | 163.12 ng/mL | 146 ng/mL | 261.12 pg/mL | 245 pg/mL | 2.67 pg/mL | 2.36 pg/mL | 25.43 U/mg | 32.14 U/mg | 0.68 U/mg | 0.95 U/mg | 14.02 U/mg | 19.81 U/mg | 102.23 µmol | Activity [33]: Active; Activity [22]: 89 µmol; fold change (FC) [23]: 2.43; fold change (FC) [24]: 0.62; fold change (FC) [25]: 3.24; fold change (FC) [26]: 1.19; fold change (FC) [27]: 0.15; fold change (FC) [28]: 0.38; Activity [29]: Active; Activity [30]: Active; Activity [31]: Active; Activity [32]: Active
3 | COc1ccccc1Oc1c(NS(=O)(=O)c2ccccc2)nc(-c2ncccn2)nc1OCC1CCCN1C (stereo unspecified) | 0.24 | 0.27 | 10.12 mmHg | 13.11 mmHg | 23.16 mmHg | 29.08 mmHg | 0.22 nM | 158.12 ng/mL | 132.21 ng/mL | 252.13 pg/mL | 238.08 pg/mL | 2.32 pg/mL | 2.1 pg/mL | 31.12 U/mg | 40.21 U/mg | 0.81 U/mg | 1.05 U/mg | 17.27 U/mg | 22.72 U/mg | 88.12 µmol | Activity [34]: Active; Activity [22]: 73.12 µmol; fold change (FC) [23]: 2.91; fold change (FC) [24]: 1.38; fold change (FC) [25]: 1.04; fold change (FC) [26]: 1.07; fold change (FC) [27]: 0.37; fold change (FC) [28]: 0.18; Activity [29]: Active; Activity [30]: Active; Activity [31]: Active; Activity [32]: Active

Reference: ChEMBL document CHEMBL5625200 (Eur J Med Chem, 2023)
